Values of other authors, collected in paper PMC7220402 (Medicine, 2020).

Variation in dose-normalized MPA exposure: 10 fold
SMILES: COc1c(C)c2c(c(O)c1C/C=C(\C)CCC(=O)O)C(=O)OC2 [MPA, mycophenolic acid]
